Laboratory results from patent US9226950B2, “Method and composition for treating diabetes mellitus” (National Dong Hwa University, priority 2013, dated 2016).

Tests used:
[1] = system: AKT; test: Phosphorylation of AKT on Thr308 in L6 cells, Western blot; type: cell-based, rat; conditions: FIG. 1(b)
Description: (§1) […] muscle myoblast cells (L6) was a generous gift from Professor Hitoshi Ashida's Lab. (Kobe University, Kobe, Japan). The cells were grown and maintained in α-minimal essential medium (α-MEM, 12000022, GIBCO, CA, USA) containing 10% fetal bovine serum (FBS, GIBCO) and 1% penicillin streptomycin (GIBCO) in a cell culture incubator with 5% CO2 at 37° C. Prior to the following experiments, the cells were seeded and cultured at a density of 8×10^3 cells per well in 96-well plates or 2.5×10^5 cells per well in 6-well plates. After the myoblasts achieved 80% confluence, the cells were incubated for 5 days in the α-MEM supplemented with 2% FBS to induce differentiation to myotubes.
The L6 cells were fully differentiated with α-MEM supplemented with 2% FBS for 5 days to myotubes. The cells were washed twice with PBS containing 0.1% BSA and subsequently incubated α-MEM containing 0.25% BSA with or without 100 nM of S961, and then treated with or without 100 μM of Tetracosanol for 90 min. Then, the cells were treated with or without 10 μM of insulin for 30 min. Finally, the cells were collected and washed twice in KRH buffer, then lysed in ice-cold RIPA buffer for 60 min. After centrifugation at 12,000×g for 30 min. at 4° C., the supernatant was kept at −80° C. until use. The levels of the proteins including phospho-AKT (Thr308), AKT, phospho-AMPK (Thr172), and AMPK (Cell Signaling) were detected and evaluated by Western blot with primary antibody.
The cells after treatments were collected and washed twice in cold KRH buffer, and then lysed in ice-cold RIPA buffer incubation at 4° C. for 60 min. After centrifugation at 12,000×g for 30 min at 4° C., the supernatant was kept and quantified by Bradford protein assay (Bio-Rad, Hercules, Calif., USA). The proteins were separated using sodium dodecyl sulfate polyacrylamide gel electrophoresis (SDS-PAGE) and subsequently transferred to PVDF (Perkin Elmer Life Sciences, Boston, Mass., USA) membrane. […] The signals were monitored using Western Lightning™ Plus-ECL (Perkin Elmer Life Sciences) and the PVDF membrane was exposed to Luminescent image analyzer (LAS)-3000 (Fujifilm, Minato, Tokyo, Japan). Acquired data were analyzed and compared the difference among treatments.
The differentiated L6 cells were incubated with 100 μM of tetracosanol (Tet) at 37° C. for 90 min, and then treated 10 μM of insulin (Ins) at 37° C. for 5 or 30 min. The cell lysates were separated by SDS-PAGE and blotted 5 min for phospho-Insr on Tyr1158, 1162, and 1163 (Insr, 100 kDa), and phospho-AKT on Thr308 protein level was measured at 30 min in Western blot analysis.

[2] = system: L6 myotubes; test: Glucose uptake assay (2-deoxyglucose) in L6 myotubes; type: cell-based, rat; conditions: FIG. 4
Description: as §1
The glucose uptake assay was followed the study disclosed in Yamamoto et al. (“An enzymatic fluorimetric assay to quantitate 2-deoxyglucose and 2-deoxyglucose-6-phosphate for in vitro and in vivo use.” Anal Biochem 404(2): 238-240, 2010) with minor modification and the technique generously assistant from Professor Hitoshi Ashida's Lab (Kobe University, Kobe, Japan). […] Uptake of 2DG into the cells was measured by the enzymatic fluorescence assay. The fluorescence assay buffer was composed of 50 mM TEA buffer, 0.1% BSA, 2.5 mM β-NADP (Wako Pure Chemical, Osaka, Japan), 0.05 unit Diaphorase (Wako), 150 unit/L. mesenteriodes G6PDH (sigma), and 0.5 mM Resazurin sodium salt (sigma). […]

With `CCCCCCCCCCCCCCCCCCCCCCCCO` [tetracosanol] the “phospho-AKT on Thr 308” value ([1]; 100 μM tetracosanol (Tet) alone, 90 min) was “did not”, the “phospho-AKT on Thr 308” value ([1]; insulin plus both S961 and tetracosanol (Ins+S961+Tet)) was “induced the phospho-AKT on Thr 308” and the “phospho-AKT on Thr 308” value ([1]; insulin plus tetracosanol (Ins+Tet): 100 μM tetracosanol 90 min, then 10 μM insulin 30 min) was “induced the phospho-AKT on Thr 308”. For the same compound, the cell glucose uptake ([2]; 1 μM insulin plus 400 nM S961 and 10 μM tetracosanol (Ins+S961+Tet) versus Ins+Tet) was “synergistic effect” and the cell glucose uptake ([2]; 10 μM tetracosanol with 1 μM insulin (Ins+Tet)) was “enhanced the cell glucose uptake”.
